Laboratory results from paper PMC10793101 (Acta Pharmaceutica Sinica. B, 2023).

Columns and labels:
[1] = system: APAP-induced liver injury (AILI); settings: cited from earlier work
TFEB [2] = biological target: T1, TFEB (Homo sapiens, UniProt P19484); experiment: GFP-TFEB nuclear translocation assay in qHTS format; type: cell-based, mouse
T1 sequence (P19484 1-476): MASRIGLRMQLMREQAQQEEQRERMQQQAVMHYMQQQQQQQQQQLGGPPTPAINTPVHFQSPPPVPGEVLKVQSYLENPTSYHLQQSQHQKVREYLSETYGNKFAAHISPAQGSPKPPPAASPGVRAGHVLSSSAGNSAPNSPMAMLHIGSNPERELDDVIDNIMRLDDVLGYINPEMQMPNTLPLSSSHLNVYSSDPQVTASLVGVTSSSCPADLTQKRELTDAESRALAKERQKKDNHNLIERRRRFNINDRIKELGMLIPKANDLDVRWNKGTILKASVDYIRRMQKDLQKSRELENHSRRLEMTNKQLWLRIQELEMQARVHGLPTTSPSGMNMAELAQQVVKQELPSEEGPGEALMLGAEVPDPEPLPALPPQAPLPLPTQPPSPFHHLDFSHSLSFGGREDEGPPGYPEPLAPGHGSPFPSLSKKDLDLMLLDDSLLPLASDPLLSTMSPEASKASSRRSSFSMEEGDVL

TFEB [3] = biological target: T1, TFEB; experiment: GFP-TFEB nuclear translocation validation by confocal microscopy in AML12 cells; type: cell-based, mouse; settings: stably expressing pEGFP-N1-TFEB AML12 cells, 24 h, vs control
TFEB [4] = experiment: TFEB promoter-driven luciferase reporter assay in AML12 cells; type: cell-based, mouse; settings: AML12 cells transfected with pGL3-TFEB-Luc, 24 h treatment
TFEB [5] = experiment: qPCR of TFEB target genes in AML12 cells; type: cell-based, mouse; settings: qPCR normalized to 18s
[6] = system: APAP-induced liver injury (AILI); experiment: Protection against APAP overdose-induced liver injury in mice; type: in vivo, mouse
[7] = salinomycin 5 mg/kg i.p. with APAP 500 mg/kg i.p., 6 and 24 h

With CC(=O)Nc1ccc(O)cc1 [APAP, Acetaminophen] the “levels of hepatic GSH” value (mouse livers; APAP 0.5, 2 and 6 h, recovered at 24 h) was “significantly decreased”, the “serum alanine aminotransferase (ALT) levels” value (mouse livers; APAP 500 mg/kg i.p., 6 or 24 h, vs saline) was “significantly increased” and the “mRNA levels of TFEB targeted genes in liver” value (mouse livers; APAP 500 mg/kg, 6 h, vs saline) was “significantly lower”. The “levels of hepatic CYP2E1” value (mouse livers; APAP-treated WT mouse livers vs saline-treated WT) was about 2 fold.
For CCN(CC)CCNC(=O)c1c(C)[nH]c(/C=C2\C(=O)Nc3ccc(F)cc32)c1C [Sunitinib], the “effect on AILI at high dose” value ([1]; high dose) is given as “increases AILI” and the “effect on AILI at low dose” value ([1]; low dose) is given as “mild hepatoprotective effect”.
In the case of C[C@@H]1O[C@@H](OC[C@H]2O[C@@H](Oc3cc(O)c4c(c3)O[C@H](c3ccc(O)cc3)CC4=O)[C@H](O)[C@@H](O)[C@@H]2O)[C@H](O)[C@H](O)[C@H]1O [Narirutin], the “hepatic APAP-adducts and AILI” value ([1]; mice, by activating TFEB via enhanced calcineurin activity) is given as “decrease”.
With CC[C@@H](C(=O)[C@@H](C)[C@@H](O)[C@H](C)[C@@H]1O[C@@H]([C@@H](CC)C(=O)O)CC[C@@H]1C)[C@H]1O[C@]2(C=C[C@@H](O)[C@]3(CC[C@@](C)([C@H]4CC[C@](O)(CC)[C@H](C)O4)O3)O2)[C@H](C)C[C@@H]1C [Salinomycin] the EC50 (TFEB [2]) was 2640 nM, the “nuclear translocation of TFEB” value (TFEB [3]) was “significantly increased” and the “TFEB promoter driven luciferase activity” value (TFEB [4]) was “significantly increased”. For the same compound, the “mRNA levels of TFEB target genes (Tfeb, Sqstm1, Ppargc1a, Lamp1, Vatp6v1d, Vatp6v1h, Pparα)” value (TFEB [5]) was “increased”, the “hepatic levels of APAP-protein adducts” value ([6]; APAP-treated mice with or without salinomycin) was “similar” and the “serum levels of APAP-adducts” value ([6]; APAP-treated mice with salinomycin) was “markedly decreased”. For the same compound, the “hepatic protein levels of CYP2E1” value ([6]; immunoblotting, salinomycin 5 mg/kg i.p.) was “did not change”, the “hepatic TFEB levels” value ([6]; immunoblotting, salinomycin with APAP vs APAP) was “partially recovered” and the “levels of phosphorylated JNK” value ([6]; liver, co-treatment of salinomycin after APAP overdose) was “reduced”. For the same compound, the “areas of centrilobular necrosis (H&E and TUNEL staining)” value ([6]; salinomycin 5 mg/kg i.p. with APAP 500 mg/kg i.p.) was “almost completely abolished”, the “serum ALT levels” value [6, 7] was “markedly decreased” and the “serum AST levels” value [6, 7] was “markedly decreased”.
For CCC(=O)N1CCN(c2ccc(-n3c(=O)ccc4cnc5ccc(-c6cnc7ccccc7c6)cc5c43)cc2C(F)(F)F)CC1 [Torin1, Torin 1], the “nuclear translocation of TFEB” value (TFEB [3]) was “significantly increased”.
